The nature of one data set: in vivo. Particulars: rat.
A short description of data set [1]: Plasma pharmacokinetics of liposome-entrapped and free topotecan in rats. In kind it is in vivo. The following applies: for Vol. Dist. / elimination rate constant: i.v.; for AUC / Cmax / clearance / half-life: rat, plasma, iv; for half-life: read-out: T ½ (converted). Here is the method: FIGS. 4A–4B show the plasma concentration of topotecan as a function of time after administration to rats. […] FIG. 4B compares the two forms of the drug at a dosage of 5 mg/kg.

Data set [2] concerns HT-29 subcutaneous xenograft tumor. Type of data set: in vivo.
The subject of data set [3] is HT-29 colon cancer xenograft. The data set is described as follows: HT-29 xenograft efficacy of liposome-entrapped CKD-602 (Example 5). Type of data set: in vivo, mice.
Data set [4] in a line: Plasma pharmacokinetics of liposome-entrapped and free CKD-602 in rats. The following applies: 1 mg/kg.
Setting [5] is: 25 mg/kg i.v. days 9, 16, 23, groups of 12 mice.
[6] abbreviates: 20 mg/kg i.v. days 11, 18, 25, animals/group.

The molecule `CC[C@@]1(O)C(=O)OCc2c1cc1n(c2=O)Cc2c-1nc1cc3c(cc1c2CN1CCN(C)CC1)OCCO3` [free MPE-camptothecin, 7-(4-methyl-piperazino-methylene)-10,11-ethylenedioxy-20(S)-camptothecin] displayed a half-life in “in vivo” of roughly 50 min.

Broadly, the Cmax is the maximum level reached in the sampled fluid or tissue. Broadly, the clearance is the volume of plasma or blood freed of the substance per unit of time. Take `CC[C@@]1(O)C(=O)OCc2c1cc1n(c2=O)Cc2cc3c(CN(C)C)c(O)ccc3nc2-1` [free topotecan, 9-dimethyl-aminomethyl-10-hydroxycamptothecin]: in data set [1] (Dosage = 2 mg/kg), the “Vol. Dist.” value came to 173 mL, the elimination rate constant was 3.45 h⁻¹, the AUC came to 570 ng·h/mL and the Cmax was found to be 2890 ng/mL. In data set [1] (Dosage = 2 mg/kg), the clearance is 14.8 mL/min and the half-life is 12 min. Moreover, in data set [1] (Dosage = 5 mg/kg), the “Vol. Dist.” value came to 278 mL, the elimination rate constant came out at 2.33 h⁻¹, the AUC turned out to be 1570 ng·h/mL and the highest level (Cmax) was 8230 ng/mL. Further, in data set [1] (Dosage = 5 mg/kg), the clearance is 13.7 mL/min and the half-life was 18 min. Also, the tumor growth rate in data set [2] (25 mg/kg) came to 14.1 mm^3 per day. For the same molecule, in data set [2] (25 mg/kg i.v. days 9, 16, 23), the “% T/C Day 29” value was determined as 82.8%, the “% T/C Day 33” value is 79.0% and the “% T/C Day 36” value was 85.9%. Besides, in data set [2] (setting [5]), the “Complete Remission (number of animals)” value is listed as 0, the “Non-Responsive (number of animals)” value was 11 and the “Partial Remission (number of animals)” value was determined as 1.

The molecule `CC[C@@]1(O)C(=O)OCc2c1cc1n(c2=O)Cc2c-1nc1ccccc1c2CCNC(C)C` [free CKD602] returned a tumor growth rate in data set [3] (20 mg/kg) of 15.21 mm^3 per day. Besides, in data set [3] (20 mg/kg i.v. days 11, 18, 25), the “% T/C Day 29” value is on record as 129.1%, the “% T/C Day 33” value turned out to be 120.1% and the “% T/C Day 36” value was determined as 99.9%. In data set [3] (setting [6]), the “Complete Remission” value is reported as 0/6, the Non-Responsive is reported as 6/6 and the “Partial Remission” value was 0/6. In addition, in data set [4], the AUC was 0.37 µg/mL/h and the calculated half-life was 12 min.

(Values after US7279179B2, “Liposome-entrapped topoisomerase inhibitors” (ALZA Corporation, priority 1988, dated 2007).)
